Our source for the IC50 values is patent US11021467B2, “Phosphatidylinositol 3-kinase inhibitors” (Gilead Sciences, Inc., priority 2014, dated 2021).

Test in all cases: TR-FRET enzymatic activity assay against PI3K isoforms
Common to all, as to assay type: biochemical
A general note: In TR-FRET formats the signal depends on donor and acceptor labels being close together.

Test [1] concerns the target PI3Kβ (Homo sapiens (Human), UniProt P42338). Conditions: PI3Kβ, TR-FRET, 2×Km ATP, 30 minutes at 25° C. An excerpt: (§1) The compounds of formula (I) were characterized for their enzymatic activity against the PI3K isoforms. […] TR-FRET monitored the formation of 3,4,5-inositol triphosphate molecule that competed with fluorescently labeled PIP3 for binding to the GRP-1 pleckstrin homology domain protein.

For test [2], the target named is PI3Kγ (Homo sapiens (Human), UniProt P48736). Conditions: 2×Km ATP, 30 minutes at 25° C.
From the text: as §1

Test [3] deals with PI3Kδ (Homo sapiens (Human), UniProt O00329). Conditions: 2×Km ATP, 30 minutes at 25° C.
From the text: as §1

Molecules are shown by their SMILES. Bounds are passed on as bounds.

Sequence of PI3Kδ (O00329 whole entry): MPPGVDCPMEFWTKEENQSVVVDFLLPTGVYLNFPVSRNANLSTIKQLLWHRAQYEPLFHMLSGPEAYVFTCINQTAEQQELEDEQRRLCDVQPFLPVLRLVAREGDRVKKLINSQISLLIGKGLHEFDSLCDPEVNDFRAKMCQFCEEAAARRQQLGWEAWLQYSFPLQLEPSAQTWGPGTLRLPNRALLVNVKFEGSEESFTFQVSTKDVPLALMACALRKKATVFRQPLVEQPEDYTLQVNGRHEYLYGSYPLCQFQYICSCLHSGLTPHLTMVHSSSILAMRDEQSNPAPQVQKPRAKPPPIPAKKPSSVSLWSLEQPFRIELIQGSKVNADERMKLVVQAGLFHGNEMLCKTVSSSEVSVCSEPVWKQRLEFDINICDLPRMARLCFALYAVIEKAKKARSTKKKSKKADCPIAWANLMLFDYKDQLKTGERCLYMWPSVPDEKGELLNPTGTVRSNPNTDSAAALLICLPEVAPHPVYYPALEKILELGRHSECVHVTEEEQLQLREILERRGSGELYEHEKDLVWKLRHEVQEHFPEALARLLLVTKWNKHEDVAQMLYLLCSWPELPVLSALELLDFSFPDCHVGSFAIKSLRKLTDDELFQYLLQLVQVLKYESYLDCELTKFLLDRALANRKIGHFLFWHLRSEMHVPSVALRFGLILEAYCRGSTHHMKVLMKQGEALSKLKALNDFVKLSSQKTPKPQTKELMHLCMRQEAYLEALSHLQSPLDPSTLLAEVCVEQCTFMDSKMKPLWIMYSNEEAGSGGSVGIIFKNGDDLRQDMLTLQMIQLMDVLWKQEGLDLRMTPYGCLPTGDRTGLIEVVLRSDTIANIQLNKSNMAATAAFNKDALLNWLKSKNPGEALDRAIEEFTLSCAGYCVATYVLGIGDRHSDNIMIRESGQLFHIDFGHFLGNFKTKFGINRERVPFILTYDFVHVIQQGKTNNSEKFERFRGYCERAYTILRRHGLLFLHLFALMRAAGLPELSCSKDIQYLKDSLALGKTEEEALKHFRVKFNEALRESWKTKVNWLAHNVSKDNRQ
Sequence of PI3Kδ (P27986 whole entry partner): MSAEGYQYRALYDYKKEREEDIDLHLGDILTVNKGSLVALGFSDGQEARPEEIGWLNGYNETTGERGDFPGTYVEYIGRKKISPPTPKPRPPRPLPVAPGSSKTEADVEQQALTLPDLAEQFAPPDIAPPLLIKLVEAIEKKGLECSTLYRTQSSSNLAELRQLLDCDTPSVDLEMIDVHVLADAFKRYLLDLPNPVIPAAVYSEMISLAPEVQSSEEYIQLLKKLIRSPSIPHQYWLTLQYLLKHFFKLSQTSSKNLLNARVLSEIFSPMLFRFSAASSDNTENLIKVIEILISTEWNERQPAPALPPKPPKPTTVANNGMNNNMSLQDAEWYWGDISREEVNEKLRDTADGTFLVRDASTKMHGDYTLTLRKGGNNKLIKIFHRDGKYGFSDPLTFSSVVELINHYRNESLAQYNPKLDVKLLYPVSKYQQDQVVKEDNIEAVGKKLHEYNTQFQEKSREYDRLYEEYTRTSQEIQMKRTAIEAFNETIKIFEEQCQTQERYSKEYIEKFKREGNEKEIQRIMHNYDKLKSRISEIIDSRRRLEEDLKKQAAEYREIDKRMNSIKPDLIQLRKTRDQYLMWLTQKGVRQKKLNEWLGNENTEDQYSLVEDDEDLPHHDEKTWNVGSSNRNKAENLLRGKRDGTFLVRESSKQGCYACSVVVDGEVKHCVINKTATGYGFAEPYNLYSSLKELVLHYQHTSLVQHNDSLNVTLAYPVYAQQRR
Sequence of PI3Kγ (P48736 whole entry): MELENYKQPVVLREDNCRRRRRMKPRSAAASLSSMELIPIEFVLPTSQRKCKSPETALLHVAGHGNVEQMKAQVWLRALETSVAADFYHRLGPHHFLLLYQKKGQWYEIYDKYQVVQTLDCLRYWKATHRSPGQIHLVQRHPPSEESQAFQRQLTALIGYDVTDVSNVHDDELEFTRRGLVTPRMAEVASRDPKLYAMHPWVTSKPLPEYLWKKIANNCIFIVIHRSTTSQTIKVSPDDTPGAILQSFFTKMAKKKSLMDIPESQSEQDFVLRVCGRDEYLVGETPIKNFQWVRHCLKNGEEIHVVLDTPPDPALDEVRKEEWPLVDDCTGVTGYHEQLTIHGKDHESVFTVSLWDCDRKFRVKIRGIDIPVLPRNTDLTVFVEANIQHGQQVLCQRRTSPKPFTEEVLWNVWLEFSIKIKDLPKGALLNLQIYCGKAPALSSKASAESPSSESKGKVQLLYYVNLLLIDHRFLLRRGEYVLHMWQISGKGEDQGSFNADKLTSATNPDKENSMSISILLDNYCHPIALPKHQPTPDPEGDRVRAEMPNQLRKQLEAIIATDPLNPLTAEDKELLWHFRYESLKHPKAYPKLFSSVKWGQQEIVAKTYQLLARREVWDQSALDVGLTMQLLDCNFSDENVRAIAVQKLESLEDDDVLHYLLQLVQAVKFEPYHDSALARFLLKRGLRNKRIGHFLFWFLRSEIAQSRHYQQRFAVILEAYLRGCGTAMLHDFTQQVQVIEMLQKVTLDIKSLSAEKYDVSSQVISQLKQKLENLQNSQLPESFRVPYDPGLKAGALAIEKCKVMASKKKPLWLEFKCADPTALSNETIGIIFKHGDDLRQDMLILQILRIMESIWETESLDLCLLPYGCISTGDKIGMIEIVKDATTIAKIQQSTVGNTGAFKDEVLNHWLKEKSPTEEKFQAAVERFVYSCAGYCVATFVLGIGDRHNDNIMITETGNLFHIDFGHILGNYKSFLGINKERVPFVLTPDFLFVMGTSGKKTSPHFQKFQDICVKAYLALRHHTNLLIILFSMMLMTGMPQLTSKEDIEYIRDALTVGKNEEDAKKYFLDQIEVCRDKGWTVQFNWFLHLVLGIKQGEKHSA
Sequence of PI3Kβ (P42338 whole entry, the tested form may be a part, canonical isoform): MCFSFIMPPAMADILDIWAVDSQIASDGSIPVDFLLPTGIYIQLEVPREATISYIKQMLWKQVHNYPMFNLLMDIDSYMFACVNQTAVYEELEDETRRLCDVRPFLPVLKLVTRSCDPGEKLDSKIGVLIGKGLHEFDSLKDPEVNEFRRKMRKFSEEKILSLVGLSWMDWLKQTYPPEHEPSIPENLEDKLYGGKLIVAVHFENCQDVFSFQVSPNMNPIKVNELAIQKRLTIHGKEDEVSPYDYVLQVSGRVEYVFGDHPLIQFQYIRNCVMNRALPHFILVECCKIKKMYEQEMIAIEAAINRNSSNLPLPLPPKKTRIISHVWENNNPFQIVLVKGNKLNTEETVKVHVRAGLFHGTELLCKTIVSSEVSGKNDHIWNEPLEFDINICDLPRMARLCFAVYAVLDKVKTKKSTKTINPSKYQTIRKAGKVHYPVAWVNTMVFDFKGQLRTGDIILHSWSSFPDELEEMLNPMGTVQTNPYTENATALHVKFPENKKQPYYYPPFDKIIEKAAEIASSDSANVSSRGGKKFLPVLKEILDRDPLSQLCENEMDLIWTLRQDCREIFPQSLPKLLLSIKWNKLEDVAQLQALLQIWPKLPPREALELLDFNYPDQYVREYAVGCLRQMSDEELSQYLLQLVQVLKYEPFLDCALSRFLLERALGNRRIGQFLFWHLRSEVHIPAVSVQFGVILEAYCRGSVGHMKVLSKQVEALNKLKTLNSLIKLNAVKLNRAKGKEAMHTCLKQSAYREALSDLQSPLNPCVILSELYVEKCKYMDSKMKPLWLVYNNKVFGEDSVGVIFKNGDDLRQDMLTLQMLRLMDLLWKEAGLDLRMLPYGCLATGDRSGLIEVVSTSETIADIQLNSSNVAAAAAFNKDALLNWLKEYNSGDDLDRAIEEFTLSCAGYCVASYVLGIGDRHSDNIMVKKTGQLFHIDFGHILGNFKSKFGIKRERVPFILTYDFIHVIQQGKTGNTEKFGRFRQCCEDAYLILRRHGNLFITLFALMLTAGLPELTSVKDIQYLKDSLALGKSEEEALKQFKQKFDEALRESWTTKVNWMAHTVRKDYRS
Sequence of PI3Kβ (P27986 whole entry partner, the tested form may be a part, canonical isoform): as the sequence (P27986 whole entry partner) above

Broadly, the IC50 is the midpoint of a concentration-inhibition curve. Higher therefore signals lower potency. As for `COC[C@H](C)n1c([C@H](C)Nc2nc(N)nc(N)c2C#N)nc2cccc(Cl)c2c1=O` [Compound 132, 2,4-diamino-6-(((S)-1-(5-chloro-3-((S)-1-methoxypropan-2-yl)-4-oxo-3,4-dihydroquinazolin-2-yl)ethyl)amino)pyrimidine-5-carbonitrile], the IC50 in test [1] was determined as 0.058 µM; in test [2] it was 0.33 µM; in test [3], 0.002 µM.

As for `C[C@H](Nc1ncnc(N)c1C#N)c1nc2cccc(Cl)c2c(=O)n1CCCN1CCCCC1` [Compound 134, (S)-4-amino-6-((1-(5-chloro-4-oxo-3-(3-(piperidin-1-yl)propyl)-3,4-dihydroquinazolin-2-yl)ethyl)amino)pyrimidine-5-carbonitrile], the half-inhibitory concentration (IC50) in test [1] was 0.55 µM; in test [2] it was at least 10 µM; in test [3], 0.004 µM.

On to `C[C@H](Nc1ncnc(N)c1C#N)c1nc2cccc(Cl)c2c(=O)n1CCCN1CCN(C)CC1` [Compound 135, (S)-4-amino-6-((1-(5-chloro-3-(3-(4-methylpiperazin-1-yl)propyl)-4-oxo-3,4-dihydroquinazolin-2-yl)ethyl)amino)pyrimidine-5-carbonitrile], for which the IC50 in test [1] was 0.64 µM; in test [2], at least 10 µM; in test [3] it was 0.006 µM.

Take `C[C@H](Nc1ncnc(N)c1C#N)c1nc2cccc(Cl)c2c(=O)n1CCN1CCCC1` [Compound 136, (S)-4-amino-6-((1-(5-chloro-4-oxo-3-(2-(pyrrolidin-1-yl)ethyl)-3,4-dihydroquinazolin-2-yl)ethyl)amino)pyrimidine-5-carbonitrile]: the results for the IC50 in test [1], in test [2] and in test [3] were 0.99 µM, at least 10 µM and 0.025 µM, respectively.

Consider `C[C@H](Nc1nc(N)nc(N)c1C#N)c1nc2cccc(Cl)c2c(=O)n1CCN1CCCC1` [Compound 137, (S)-2,4-diamino-6-((1-(5-chloro-4-oxo-3-(2-(pyrrolidin-1-yl)ethyl)-3,4-dihydroquinazolin-2-yl)ethyl)amino)pyrimidine-5-carbonitrile], for which the IC50 in test [1] was 0.76 µM; in test [2], at least 10 µM; in test [3] it was 0.027 µM.

For the compound `C[C@H](Nc1nc(N)nc(N)c1C#N)c1nc2cccc(Cl)c2c(=O)n1CCc1ccn[nH]1` [Compound 140, (S)-4-((1-(3-(2-(1H-pyrazol-5-yl)ethyl)-5-chloro-4-oxo-3,4-dihydroquinazolin-2-yl)ethyl)amino)-2,6-diaminopyrimidine-5-carbonitrile], the IC50 in test [1] came to 0.41 µM; in test [2], 0.59 µM; in test [3], 0.006 µM.

Turning to `C[C@H](Nc1ncnc(N)c1C#N)c1nc2cccc(Cl)c2c(=O)n1C[C@@H](O)CO` [Compound 142], the 50% inhibitory concentration (IC50) in test [1] is 0.527 µM; in test [2], at least 10 µM; in test [3], 0.087 µM.

In the case of `C[C@H](Nc1ncnc(N)c1C#N)c1nc2cccc(Cl)c2c(=O)n1C[C@H](O)CO` [Compound 143], the IC50 in test [1] stood at 0.374 µM; in test [2] it was 4.24 µM; in test [3], 0.034 µM.
